According to patent publication US12109179B2, “Pharmaceutical compositions and combinations comprising inhibitors of the androgen receptor and uses thereof” (ESSA Pharma Inc., priority 2019, dated 2024):

Tests used:
[1] = test system: Androgen-induced PSA-luciferase (LNCaP cells); assay: Androgen-induced PSA (6.1 kb)-luciferase reporter assay in LNCaP cells; format: cell-based; settings: Homo sapiens, R1881 (1 nM) 24 h
Description: To determine the IC50, treatments were normalized to the maximum activity with androgen-induction (in the absence of test compounds, vehicle only) (Table 1).
Luciferase Assay: Lysates were thawed on ice then collected into V-bottom 96-well tissue culture plates. Lysates were centrifuged at 4° C. for 5 minutes at 4000 rpm. To measure luminescence of LNCaP cell lysates the Firefly Luciferase Assay System (Promega) was employed, according to manufacturer's protocol.
Comparisons between treatment and control groups were compared using Two-Way ANOVA with post-hoc Dunnett's and Tukey's tests. Differences were considered statistically significant at P values less than 0.05. Densitometric quantification of relative AR levels was determined by Image.

PSA protein = assay: Western blot of PSA protein in LNCaP lysates; format: cell-based; settings: ATRA (10 μM), R1881 (1 nM) 24 h
[2] = test system: reporter constructs regulated by CMV promoter or AP-1 binding sites; assay: Control reporter constructs (CMV promoter, AP-1 binding sites); format: cell-based
Source text: 2010, and Myung et al., J Clin Invest. 2013.

LN95-D3 cells = assay: Cell cycle analysis of LN95-D3 cells; format: cell-based; settings: 1.5% charcoal-stripped serum
Description: Flow cytometry: Fixed cells were probed with anti-BrdU-FITC antibody (BD Biosciences) and stained with 7AAD (Sigma). Data was acquired on a FACSCalibur flow cytometer (BD Biosciences) with CellQUEST Pro and later analyzed using FlowJo V10 software.
After incubating with the compounds, cells were labelled with BrdU for 2 h and then processed for flow cytometry.

[3] = test system: AR transcriptional activity (PSA (6.1 kb)-luciferase, LNCaP cells); assay: PSA (6.1 kb)-luciferase assay with Pin1 inhibitors and AR NTD inhibitors (Examples 36-37); format: cell-based; settings: for IC50: Homo sapiens, 24 h
Description: Statistical analyses: Statistical significance was determined with GraphPad Prism 8 software using two-way ANOVA with Dunnett's multiple comparisons test unless indicated otherwise; *P<0.05, **P<0.01, ***P<0.001; ns, not significant.
Data shown in Figures are the means±SE from 4 independent experiments.

LN95 cells = assay: Senescence-associated β-gal staining of LN95 cells; format: cell-based; settings: 1.5% charcoal-stripped serum, 3 days
Description: β-galactosidase staining: Cells grown in chamber slides and treated with compounds were fixed at room temperature with 2% formaldehyde/0.2% glutaraldehyde, and then incubated at 37° C. with fresh β-gal staining solution (Cell Signaling) titrated to pH 6.0. Staining was optimal after incubating the slides overnight for 16-18 hours.
Results shown are representative of 3 independent experiments.

C4-2B-MDVR = assay: Colony formation, C4-2B-MDVR; format: cell-based, human
[4] = test system: AR-positive breast cancer cell lines; assay: Cell proliferation (BrdU) and viability (alamarBlue) of breast cancer cell lines; format: cell-based; settings: BrdU 4 days (enzalutamide 10 μM, EPI-002 35 μM); alamarBlue 2 or 3 days
Description: Cell Proliferation and Viability Assay: Each breast cancer cell line was plated at 5,000 cells per well in a 96-well plate in culture medium containing 5% or 10% fetal bovine serum. […] For proliferation assay, cells were treated for 4 days and labeled with BrdU for 2 hours. Incorporation of BrdU was measured by enzyme-linked immunosorbent assay (ELISA; Cell Proliferation ELISA, BrdU (colorimetric) from Roche). For cell viability assays, alamarBlue was used for assess cell viability after 2 or 3 days of treatment.
BrdU incorporation was used to assess cell proliferation.
AlamarBlue was used to assess cell viability. Results are presented as mean±SEM (n=3 except n=6 for LNCaP).

LNCaP95 cells = assay: γH2AX DNA damage in LNCaP95 cells with or without irradiation; format: cell-based; settings: ENZ 5 μM, with or without irradiation (4Gy), 48 h
Description: Further, cells were labelled for γH2AX and 7AAD and analyzed by flow cytometry (FIG. 12B). The percentage of cells containing above 10 γH2AX foci (mean±SD from three independent experiments) are represented in FIG. 12C.
Flow Cytometry: Cell cycle analysis was conducted by flow cytometry using BrdU-FITC and 7AAD. DNA damage was analyzed using γH2AX antibody (CST) and 7AAD. Cells were analyzed on FACScalibur flow cytometer.
Immunofluorescence staining: γH2AX antibody (Millipore mouse), Alexa488 anti-mouse antibody were used for staining. Cells were analyzed on Axio observer (×20 magnification) equipped with epitome 2.
Statistical analysis: Graphs represent the means±SEM from three independent experiments performed with three technical replicates. Statistical significance was determined using GraphPad Prism software with a one-way ANOVA; *P<0.05, **P<0.01, ***P<0.001, ****P<0.0001.

[5] = test system: mCRPC patients with bone metastases; settings: cited from earlier work

Question: For `CC(C)(c1ccc(OCC(=O)CNS(C)(=O)=O)cc1)c1cc(Cl)c(OCCCCl)c(Cl)c1` [AA31, N-(3-(4-(2-(3,5-dichloro-4-(3-chloropropoxy)phenyl)propan-2-yl)phenoxy)-2-oxopropyl)methanesulfonamide], which IC50 [1] is on record?
Answer: The IC50 was 51 nM.

Question: With `CC(C)(c1ccc(OCC(=O)CNS(C)(=O)=O)cc1)c1cc(Cl)c(OCCCl)c(Cl)c1` [AA33] as the molecule, how does the IC50 [1] read?
Answer: The IC50 was 38 nM.

Question: With `CC(O)(CCl)COc1c(Cl)cc(C(C)(C)c2ccc(OCC(=O)CNS(C)(=O)=O)cc2)cc1Cl` (stereo not drawn) [AA52] as the molecule, how does the IC50 [1] read?
Answer: The IC50 was 74 nM.

Question: With `COCC(=O)COc1ccc(C(C)(C)c2cc(Cl)c(OCC(O)CCl)c(Cl)c2)cc1` (stereo not drawn) [AA56] as the molecule, how does the IC50 [1] read?
Answer: Its IC50 is 344 nM.

Question: For `CC(=O)C(=O)Nc1ccc(C(C)(C)c2cc(Cl)c(OCCCCl)c(Cl)c2)cc1` [AA85], which IC50 [1] is on record?
Answer: Its IC50 is 368 nM.

Question: Which “androgen-induced expression of PSA protein” value (PSA protein) does the source give for `CC1=C(/C=C/C(C)=C/C=C/C(C)=C/C(=O)O)C(C)(C)CCC1` [ATRA, all-trans retinoic acid] here?
Answer: Its value is “decreased”.

Question: And the “inhibitory effects on CMV promoter or AP-1 reporter constructs” value [2]?
Answer: Its value is “No inhibitory effects”.

Question: And the cell cycle effect (LN95-D3 cells)?
Answer: The cell cycle effect was “arrested cells in G1 and decreased the S phase population in a dose-dependent manner”.

Question: Which IC50 [1] does the source give for `CC(C)(c1ccc(OC[C@H](O)CO)cc1)c1cc(Cl)c(OC[C@H](O)CCl)c(Cl)c1` [Compound 1a] here?
Answer: The IC50 was 1410 nM.

Question: Which IC50 [1] does the source give for `COC[C@@H](O)COc1ccc(C(C)(C)c2cc(Cl)c(OC[C@H](O)CCl)c(Cl)c2)cc1` [Compound 5a] here?
Answer: Its IC50 is 1030 nM.

Question: For `CC(C)(c1ccc(OC[C@H](O)Cn2ccnc2)cc1)c1cc(Cl)c(OC[C@H](O)CCl)c(Cl)c1` [Compound 9a], which IC50 [1] is on record?
Answer: Its IC50 is 3120 nM.

Question: With `CC(C)(c1ccc(OC[C@H](O)CN2CCOCC2)cc1)c1cc(Cl)c(OC[C@H](O)CCl)c(Cl)c1` [Compound 11a] as the molecule, how does the IC50 [1] read?
Answer: The IC50 was 1050 nM.

Question: With `CC(C)(c1ccc(OC[C@H](O)CN)cc1)c1cc(Cl)c(OC[C@H](O)CCl)c(Cl)c1` [Compound 12a, (R)-1-amino-3-(4-(2-(3,5-dichloro-4-((S)-3-chloro-2-hydroxypropoxy)phenyl)propan-2-yl)phenoxy)propan-2-ol] as the molecule, how does the IC50 [1] read?
Answer: The IC50 was 2260 nM.

Question: With `CC1=C(/C=C/C(C)=C/C=C/C(C)=C\C(=O)O)C(C)(C)CCC1` [Compound 13CisRA] as the molecule, how does the “inhibitory effects on CMV promoter or AP-1 reporter constructs” value [2] read?
Answer: The value was “No inhibitory effects”.

Question: For `CC(C)(c1ccc(OC[C@H](O)CNS(C)(=O)=O)cc1)c1cc(Cl)c(OC[C@H](O)CCl)c(Cl)c1` [Compound 13a], which IC50 [3] is on record?
Answer: The IC50 was 740 ± 1200 nM.

Question: And the IC50 [1]?
Answer: The IC50 was 1050 nM.

Question: With `CCS(=O)(=O)C[C@@H](O)COc1ccc(C(C)(C)c2cc(Cl)c(OC[C@H](O)CCl)c(Cl)c2)cc1` [Compound 14a] as the molecule, how does the IC50 [1] read?
Answer: Its IC50 is 950 nM.

Question: With `CC(C)(c1ccc(OC[C@H](O)CO)cc1)c1ccc(OC[C@H](O)CCl)cc1` [EPI-002] as the molecule, how does the “percentage of β-gal-positive cells, combination with ATRA” value (LN95 cells) read?
Answer: Its value is “synergy”.

Question: And the “colony formation, combination with Enzalutamide” value (C4-2B-MDVR)?
Answer: The value was “reduced colony formation”.

Question: And the IC50 [3]?
Answer: The IC50 was 7900 ± 1200 nM.

Question: And the “decrease in IC50 values in the presence of ATRA” value ([3]; PSA (6.1 kb)-luciferase)?
Answer: The value was 2 fold.

Question: What about the “effect of combination with ATRA on inhibiting AR transcriptional activity” value ([3]; PSA (6.1 kb)-luciferase, R1881 (1 nM)) of the same molecule?
Answer: The value was “synergistic effect”.

Question: And the “cell proliferation and viability” value [4]?
Answer: Its value is “significantly inhibited”.

Question: What about the “combination with ATRA: G1 arrest and decrease of S phase population” value (LN95-D3 cells) of the same molecule?
Answer: Its value is “synergistic”.

Question: With `CNC(=O)c1ccc(N2C(=S)N(c3ccc(C#N)c(C(F)(F)F)c3)C(=O)C2(C)C)cc1F` [Enzalutamide, enzalutamide] as the molecule, how does the “percentage of cells containing above 10 γH2AX foci” value (LNCaP95 cells) read?
Answer: Its value is “no effect”.

Question: What about the “combination with ATRA: G1 arrest and decrease of S phase population” value (LN95-D3 cells) of the same molecule?
Answer: Its value is “not”.

Question: With `[Cl][223Ra][Cl]` [radium 223 dichloride] as the molecule, how does the “increase overall survival (OS)” value [5] read?
Answer: Its value is “approximately 3 months”.
